Test [1] has as its system Klebsiella pneumoniae ATCC 4352. Briefly: Coated coupon surface antimicrobial test, Klebsiella pneumoniae. The class given is cell-based. To be noted: Stainless Steel 2″ × 2″ coupons, tested by Applicant, challenged with 3.8 × 10^7 bacteria; copolymer 0.0299 g/m2, Aegis 2.36 g/m2. The protocol:
(§1) The silylated copolymer of Example II hereinabove was dissolved in isopropanol (IPA) to give a 30% w/v (IPA) solution. This IPA solution was then diluted to a 0.1% w/v concentration with additional IPA solvent.
(§2) 2″×2″ test coupons of Formica and 316 Stainless Steel were first washed with soap and water then wiped with a 70 wt. % aqueous ethanol solution and dried. The copolymer 2600 solution was applied via misting onto the coupon surfaces using a Preval sprayer. The surfaces of the coupons were sprayed until completely covered by the copolymer solution and then dried horizontally for >3 hr. at room temperature. Control coupons were sprayed with 30 wt. % aqueous IPA solution followed by drying under identical conditions. The final areal concentration of the dried copolymer on the test coupon surface was 0.0299 g/m2. All coupons were then irradiated with a C wavelength germicidal Ultraviolet Lamp (UVC) situated within a biosafety cabinet. […]
Antimicrobial; testing was performed by Applicant and independently by Professor. Charles Gerba, Ph.D. As a control, Applicant also determined the antimicrobial properties of a material sold in commerce by Aegis under the tradename AEM 5772-5. […]

The test system of test [2] is Staphylococcus aureus ATCC 6538. Put plainly: Coated coupon surface antimicrobial test, Staphylococcus aureus. The note with it: Stainless Steel 2″ × 2″ coupons, tested by Applicant, challenged with 1.1 × 10^7 bacteria; copolymer 0.0299 g/m2, Aegis 2.36 g/m2. The class given is cell-based. The protocol:
as §1, §2
Antimicrobial; testing was performed by Applicant and independently by Professor. Charles Gerba, Ph.D. As a control, Applicant also determined the antimicrobial properties of a material sold in commerce by Aegis under the tradename AEM 5772-5.

Here are results for one compound from patent publication US9403944B2, “Antipathogenic guanidinium copolymer” (priority 2012, dated 2016).

For the compound `CCCCCCCCCCCCCCCCCC[N+](C)(C)CCC[Si](O)(O)O.[Cl-]` [Aegis Quaternary Ammonium Silane, 3-(trihydroxysilyl) propyldimethyloctadecyl ammonium chloride], the “Ave. Log10 Reduction ± SD v. control 12 min exposure” value in test [1] worked out at 1.15 ± 0.26 log10. In addition, the “Ave. Log10 Reduction ± SD v. control 10 min exposure” value in test [2] is given as 0.00 log10.
